Laboratory results reported in US10258041B2, “Substituted pyrazolylpyrazole derivative and use of same as herbicide” (KYOYU AGRI CO., LTD., priority 2015, dated 2019).

Experiments:
Format in all cases: in vivo
Oryza sativa = assay: Paddy herbicidal activity test, chemical damage to transplanted rice; details: rice transplanted in 2.0 leaf stage, 30 days
Experimental: (§1) Rice paddy soil was filled into a 1/10000 are pot followed by the addition of suitable amounts of water and chemical fertilizer, kneading, seeding with Echinochloa crus-galli, Monochoria vaginalis and Scirpus juncoides and maintaining in an irrigated state at a water depth of 3 cm. Wettable powders of Target Compound (I) shown in Table 1 prepared in compliance with the preparation examples were diluted with a suitable amount of water, rice plants in the 2.0 leaf stage were transplanted during 3.5 leaf stage of Echinochloa crus-galli, and treated by dropping in chemical in the prescribed amount per 10 are using a pipette. After treating for 30 days in a glass greenhouse at an average atmospheric temperature of […], the herbicidal efficacy thereof was investigated. Evaluation of herbicidal efficacy was carried out by comparing growth inhibition rate (%) with an untreated group, while evaluation of chemical damage was carried out by comparing growth inhibition rate (%) with the state of a complete eradication group, and were evaluated at 11 levels indicated below. • 0 (exponent): 0% to less than 10% (growth inhibition rate) • 1: 10% to less than 20% • 2: 20% to less than 30% • 3: 30% to less than 40% • 4: 40% to less than 50% • 5: 50% to less than 60% • 6: 60% to less than 70% • 7: 70% to less than 80% • 8: 80% to less than 90% • 9: 90% to less than 100% • 10: 100%

Amaranthus retroflexus [1] = assay: Farming soil treatment test; details: soil surface spray prior to weed growth, 30 days, 30° C.
Experimental: (§2) Evaluation of herbicidal efficacy was carried out by comparing growth inhibition rate (%) with an untreated group, while evaluation of chemical damage was carried out by comparing growth inhibition rate (%) with the state of a complete eradication group, and were evaluated at 11 levels indicated below. • 0 (exponent): 0% to less than 10% (growth inhibition rate) • 1: 10% to less than 20% • 2: 20% to less than 30% • 3: 30% to less than 40% • 4: 40% to less than 50% • 5: 50% to less than 60% • 6: 60% to less than 70% • 7: 70% to less than 80% • 8: 80% to less than 90% • 9: 90% to less than 100% • 10: 100% Field soil was filled into a 1/6000 are pot followed by seeding with Digitaria ciliaris, Chenopodium album and Amraranthus retroflexus and covering with soil. Wettable powders of compounds of formula (I) shown in Table 1 prepared in compliance with the preparation examples were diluted with water to the prescribed amount of chemical and uniformly sprayed onto each soil surface layer using 100 liters of sprayed water per 10 are prior to weed growth following seeding. After treating for 30 days in a glass greenhouse at an average atmospheric temperature of 30° C., the herbicidal efficacy thereof was investigated. Evaluation of herbicidal efficacy was carried out in the same manner as the above-mentioned Test Example 1,

Chenopodium album [2] = assay: Farming soil treatment test; details: soil surface spray prior to weed growth, 30 days, 30° C.
Experimental: as §2

Digitaria ciliaris [3] = assay: Farming soil treatment test; details: soil surface spray prior to weed growth, 30 days, 30° C.
Experimental: as §2

Amaranthus retroflexus [4] = assay: Weed foliar treatment test (Test 3); details: foliar spray at 1.0 to 2.0 leaf stage of Digitaria ciliaris, 3 weeks, 25° C.
Experimental: (§3) Evaluation of herbicidal efficacy was carried out by comparing growth inhibition rate (%) with an untreated group, while evaluation of chemical damage was carried out by comparing growth inhibition rate (%) with the state of a complete eradication group, and were evaluated at 11 levels indicated below. • 0 (exponent): 0% to less than 10% (growth inhibition rate) • 1: 10% to less than 20% • 2: 20% to less than 30% • 3: 30% to less than 40% • 4: 40% to less than 50% • 5: 50% to less than 60% • 6: 60% to less than 70% • 7: 70% to less than 80% • 8: 80% to less than 90% • 9: 90% to less than 100% • 10: 100% Soil was filled into a 1/6000 are pot followed by seeding with Digitaria ciliaris, Chenopodium album and Amaranthus retroflexus, covering with soil, and cultivating in a glass greenhouse at an average atmospheric temperature of 25° C. Wettable powders of Target Compound (I) shown in Table 1 prepared in compliance with the preparation examples were diluted with water to the prescribed amount of chemical and uniformly sprayed onto the weeds using 150 liters of sprayed water per 10 are when Digitaria ciliaris had grown to the 1.0 to 2.0 leaf stage. After treating for 3 weeks in a glass greenhouse at an average atmospheric temperature of 25° C., the herbicidal efficacy thereof was investigated. Evaluation of herbicidal efficacy was carried out in the same manner as the above-mentioned Test Example 1.

Chenopodium album [5] = assay: Weed foliar treatment test (Test 3); details: foliar spray at 1.0 to 2.0 leaf stage of Digitaria ciliaris, 3 weeks, 25° C.
Experimental: as §3

Digitaria ciliaris [6] = assay: Weed foliar treatment test (Test 3); details: foliar spray at 1.0 to 2.0 leaf stage of Digitaria ciliaris, 3 weeks, 25° C.
Experimental: as §3

Galinsoga parviflora = assay: Weed foliar treatment test (Test 4, higher leaf stage); details: 10 g a.i./10a; foliar spray at 4.0 to 5.0 leaf stage of Digitaria ciliaris; 20 days, 25° C.
Experimental: (§4) Evaluation of herbicidal efficacy was carried out by comparing growth inhibition rate (%) with an untreated group, while evaluation of chemical damage was carried out by comparing growth inhibition rate (%) with the state of a complete eradication group, and were evaluated at 11 levels indicated below. • 0 (exponent): 0% to less than 10% (growth inhibition rate) • 1: 10% to less than 20% • 2: 20% to less than 30% • 3: 30% to less than 40% • 4: 40% to less than 50% • 5: 50% to less than 60% • 6: 60% to less than 70% • 7: 70% to less than 80% • 8: 80% to less than 90% • 9: 90% to less than 100% • 10: 100% Field soil was filled into a 1/4500 are pot followed by seeding with Digitaria ciliaris and Galinsoga parviflora, covering with soil and cultivating in a glass greenhouse at an average atmospheric temperature of 25° C. Wettable powders of Target Compound (I) shown, in Table 1 prepared in compliance with the preparation examples were diluted with water to the prescribed amount of chemical and uniformly sprayed onto the weeds using 100 liters of sprayed water per 10 are when Digitaria ciliaris had grown to the 4.0 to 5.0 leaf stage (plant height: 10 cm to 15 cm). After treating for 20 days in a glass greenhouse at an average atmospheric temperature of 25° C., the herbicidal efficacy thereof was investigated. Evaluation of herbicidal efficacy was carried out in the same manner as the above-mentioned Test Example 1.

Digitaria ciliaris [7] = assay: as above; details: 10 g a.i./10a; foliar spray at 4.0 to 5.0 leaf stage of Digitaria ciliaris (plant height 10 cm to 15 cm); 20 days, 25° C.
Experimental: as §4

Echinochloa crus-galli = assay: Paddy herbicidal activity test; details: irrigated pot, treated at 3.5 leaf stage of Echinochloa crus-galli, 30 days
Experimental: as §1

Scirpus juncoides = assay: Paddy herbicidal activity test; details: irrigated pot, treated at 3.5 leaf stage of Echinochloa crus-galli, 30 days
Experimental: as §1

Monochoria vaginalis = assay: Paddy herbicidal activity test; details: irrigated pot, treated at 3.5 leaf stage of Echinochloa crus-galli, 30 days
Experimental: as §1

Compound	chemical damage (growth inhibition rate level), Oryza sativa (Oryza sativa; 1 g a.i./10a)	chemical damage (growth inhibition rate level), Oryza sativa (Oryza sativa; 5 g a.i./10a)	herbicidal efficacy (growth inhibition rate level), Amaranthus retroflexus (Amaranthus retroflexus [1]; 5 g a.i./10a)	herbicidal efficacy (growth inhibition rate level), Amaranthus retroflexus (Amaranthus retroflexus [1]; 10 g a.i./10a)	herbicidal efficacy (growth inhibition rate level), Chenopodium album (Chenopodium album [2]; 5 g a.i./10a)	herbicidal efficacy (growth inhibition rate level), Chenopodium album (Chenopodium album [2]; 10 g a.i./10a)	herbicidal efficacy (growth inhibition rate level), Digitaria ciliaris (Digitaria ciliaris [3]; 5 g a.i./10a)	herbicidal efficacy (growth inhibition rate level), Digitaria ciliaris (Digitaria ciliaris [3]; 10 g a.i./10a)	herbicidal efficacy (growth inhibition rate level), Amaranthus retroflexus (Amaranthus retroflexus [4]; 5 g a.i./10a)	herbicidal efficacy (growth inhibition rate level), Amaranthus retroflexus (Amaranthus retroflexus [4]; 10 g a.i./10a)	herbicidal efficacy (growth inhibition rate level), Chenopodium album (Chenopodium album [5]; 5 g a.i./10a)	herbicidal efficacy (growth inhibition rate level), Chenopodium album (Chenopodium album [5]; 10 g a.i./10a)	herbicidal efficacy (growth inhibition rate level), Digitaria ciliaris (Digitaria ciliaris [6]; 5 g a.i./10a)	herbicidal efficacy (growth inhibition rate level), Digitaria ciliaris (Digitaria ciliaris [6]; 10 g a.i./10a)	herbicidal efficacy (growth inhibition rate level), Galinsoga parviflora (Galinsoga parviflora)	herbicidal efficacy (growth inhibition rate level), Digitaria ciliaris (Digitaria ciliaris [7])	herbicidal efficacy (growth inhibition rate level), Echinochloa crus-galli (Echinochloa crus-galli; 1 g a.i./10a)	herbicidal efficacy (growth inhibition rate level), Echinochloa crus-galli (Echinochloa crus-galli; 5 g a.i./10a)	herbicidal efficacy (growth inhibition rate level), Scirpus juncoides (Scirpus juncoides; 1 g a.i./10a)	herbicidal efficacy (growth inhibition rate level), Scirpus juncoides (Scirpus juncoides; 5 g a.i./10a)	also measured
N#Cc1cnn(-c2nn3c(c2Cl)CCCC3)c1NC(=O)CCCCl [Control Agent 1.37]	2 (2: 20% to less than 30%)	2 (2: 20% to less than 30%)	5 (5: 50% to less than 60%)	6 (6: 60% to less than 70%)	4 (4: 40% to less than 50%)	5 (5: 50% to less than 60%)	3 (3: 30% to less than 40%)	4 (4: 40% to less than 50%)	6 (6: 60% to less than 70%)	7 (7: 70% to less than 80%)	4 (4: 40% to less than 50%)	5 (5: 50% to less than 60%)	3 (3: 30% to less than 40%)	4 (4: 40% to less than 50%)	4 (4: 40% to less than 50%)	2 (2: 20% to less than 30%)	3 (3: 30% to less than 40%)	3 (3: 30% to less than 40%)	1 (1: 10% to less than 20%)	2 (2: 20% to less than 30%)	herbicidal efficacy (growth inhibition rate level), Monochoria vaginalis (Monochoria vaginalis; 1 g a.i./10a): 2 (2: 20% to less than 30%); herbicidal efficacy (growth inhibition rate level), Monochoria vaginalis (Monochoria vaginalis; 5 g a.i./10a): 4 (4: 40% to less than 50%)
CCC(=O)Nc1c(C#N)cnn1-c1nn2c(c1Cl)CCCC2 [Control Agent 4.187]	1 (1: 10% to less than 20%)	2 (2: 20% to less than 30%)	4 (4: 40% to less than 50%)	5 (5: 50% to less than 60%)	2 (2: 20% to less than 30%)	3 (3: 30% to less than 40%)	2 (2: 20% to less than 30%)	3 (3: 30% to less than 40%)	5 (5: 50% to less than 60%)	6 (6: 60% to less than 70%)	2 (2: 20% to less than 30%)	3 (3: 30% to less than 40%)	2 (2: 20% to less than 30%)	3 (3: 30% to less than 40%)	3 (3: 30% to less than 40%)	2 (2: 20% to less than 30%)	2 (2: 20% to less than 30%)	3 (3: 30% to less than 40%)	0 (0 (exponent): 0% to less than 10% (growth inhibition rate))	1 (1: 10% to less than 20%)	herbicidal efficacy (growth inhibition rate level), Monochoria vaginalis (Monochoria vaginalis; 1 g a.i./10a): 3 (3: 30% to less than 40%); herbicidal efficacy (growth inhibition rate level), Monochoria vaginalis (Monochoria vaginalis; 5 g a.i./10a): 3 (3: 30% to less than 40%)
